Data as given in PubChem BioAssay (NCI).
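All cell lines were grown in 96-well plates and treated with compound for 48 hours. GI50 marks 50% less growth. TGI is the concentration that stops growth completely.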

Tests used:
Assay in all cases: inhibition of tumour cell growth, NCI panel, 48 h; in the data active means GI50 below about 0.43 µM; inactive means the rest
[1] = system: SR leukemia
[2] = system: NCI-H23 lung
[3] = system: HCT-15 colon
[4] = system: HOP-92 NSCLC
[5] = system: PC-3 prostate
[6] = system: MCF7 breast
[7] = system: IGROV1 ovarian
[8] = system: SK-MEL-2 melanoma
[9] = system: OVCAR-5 ovarian
[10] = system: NCI/ADR-RES ovarian
[11] = system: MALME-3M melanoma
[12] = system: RPMI-8226 leukemia
[13] = system: OVCAR-3 ovarian
[14] = system: CCRF-CEM leukemia
[15] = system: SW-620 colon
[16] = system: M14 melanoma
[17] = system: SF-268 CNS
[18] = system: MDA-MB-435
[19] = system: SK-OV-3 ovarian
[20] = system: UO-31 renal
[21] = system: U251 CNS
[22] = system: K-562 leukemia
[23] = system: TK-10 renal
[24] = system: SNB-19 CNS
[25] = system: KM12 colon
[26] = system: SF-295 CNS
[27] = system: COLO 205 colon
[28] = system: HCC-2998 colon
[29] = system: UACC-62 melanoma
[30] = system: NCI-H460 lung
[31] = system: SK-MEL-5 melanoma
[32] = system: 786-0 renal
[33] = system: OVCAR-4 ovarian
[34] = system: HL-60(TB) leukemia
[35] = system: HT29 colon
[36] = system: ACHN renal
[37] = system: OVCAR-8 ovarian
[38] = system: HOP-62 NSCLC
[39] = system: SK-MEL-28 melanoma
[40] = system: SNB-75 CNS
[41] = system: RXF 393 renal
[42] = system: NCI-H522 lung
[43] = system: A549 NSCLC
[44] = system: SF-539 CNS
[45] = system: HS 578T breast
[46] = system: NCI-H226 lung
[47] = system: MOLT-4 leukemia
[48] = system: EKVX NSCLC
[49] = system: UACC-257 melanoma
[50] = system: CAKI-1 renal
[51] = system: MDA-MB-231 breast
[52] = system: BT-549 breast
[53] = system: HCT-116 colon
[54] = system: SN12C renal
[55] = system: DU-145 prostate
[56] = system: LOX IMVI melanoma
[57] = system: A498 renal

O=S(=O)(O)c1cc(N=Nc2c(O)ccc3ccccc23)c2c(S(=O)(=O)O)cccc2c1
> 100 µM: TGI [1] | TGI [2] | TGI [3] | TGI [4] | TGI [5] | TGI [6] | TGI [7] | TGI [8] | TGI [9] | TGI [10] | TGI [11] | TGI [12] | TGI [13] | TGI [14] | TGI [15] | TGI [16] | TGI [17] | TGI [18] | TGI [19] | TGI [20] | TGI [21] | TGI [22] | TGI [23] | TGI [24] | TGI [25] | TGI [26] | TGI [27] | TGI [28] | TGI [29] | TGI [30] | TGI [31] | TGI [32] | TGI [33] | TGI [34] | TGI [35] | TGI [36] | TGI [37] | TGI [38] | TGI [39] | TGI [40] | TGI [41] | TGI [42] | TGI [43] | TGI [44] | TGI [45] | TGI [46] | TGI [47] | TGI [48] | TGI [49] | TGI [50] | TGI [51] | TGI [52] | TGI [53]

CCCN1C(=O)/C(=C/c2cccc(O)c2)SC1=Nc1ccccc1
33.8 µM: TGI [35]
42.5 µM: TGI [39]
> 100 µM: TGI [1] | TGI [6] | TGI [22] | TGI [34] | TGI [47] | TGI [53]
29.1 µM: TGI [54]
36.5 µM: TGI [8]
29.6 µM: TGI [3]
29.9 µM: TGI [29]
32.9 µM: TGI [40]
24 µM: TGI [23] | TGI [51]
58.4 µM: TGI [33]
36 µM: TGI [49]
37.9 µM: TGI [37]
30.8 µM: TGI [52]
26.9 µM: TGI [25]
34.4 µM: TGI [15] | TGI [20]
57.3 µM: TGI [17]
44.4 µM: TGI [7]
36.9 µM: TGI [41]
38 µM: TGI [50]
31.7 µM: TGI [43]
41.2 µM: TGI [46]
17.1 µM: TGI [57]
34 µM: TGI [44]
34.7 µM: TGI [45]
41.5 µM: TGI [27]
67.8 µM: TGI [16]
28.2 µM: TGI [21]
31 µM: TGI [9]
35.2 µM: TGI [31]
33.1 µM: TGI [5] | TGI [10]
37.7 µM: TGI [30]
25.5 µM: TGI [56]
31.2 µM: TGI [36]
51.3 µM: TGI [18]
83.8 µM: TGI [26]
inactive: GI50 [1] 17.5 µM | GI50 [2] 19 µM | GI50 [3] 14.8 µM | GI50 [5] 16.9 µM | GI50 [6] 24.4 µM | GI50 [7] 20 µM | GI50 [8] 16.6 µM | GI50 [9] 16.8 µM | GI50 [10] 17.3 µM | GI50 [12] 14.5 µM | GI50 [13] 17.7 µM | GI50 [54] 15.7 µM | GI50 [15] 18.5 µM | GI50 [16] 29 µM | GI50 [17] 22.7 µM | GI50 [18] 22.7 µM | GI50 [20] 17.4 µM | GI50 [21] 14.1 µM | GI50 [22] 6.72 µM | GI50 [55] 13 µM | GI50 [23] 6.7 µM | GI50 [24] 18 µM | GI50 [25] 11.9 µM | GI50 [26] 19 µM | GI50 [27] 18.4 µM | GI50 [29] 16.4 µM | GI50 [30] 14.8 µM | GI50 [31] 19.6 µM | GI50 [32] 20.7 µM | GI50 [33] 23.2 µM | GI50 [34] 30.8 µM | GI50 [56] 11.8 µM | GI50 [35] 17.3 µM | GI50 [36] 16.4 µM | GI50 [37] 19 µM | GI50 [39] 21.1 µM | GI50 [40] 15.1 µM | GI50 [41] 17.6 µM | GI50 [42] 22.3 µM | GI50 [43] 15.1 µM | GI50 [44] 18.8 µM | GI50 [57] 2.7 µM | GI50 [45] 16.7 µM | GI50 [46] 20.8 µM | GI50 [47] 38 µM | GI50 [48] 19.2 µM | GI50 [49] 18.8 µM | GI50 [50] 22 µM | GI50 [51] 11.4 µM | GI50 [52] 17.1 µM | GI50 [53] 38.3 µM
49.9 µM: TGI [32]
34.5 µM: TGI [24]
25.6 µM: TGI [55]
60 µM: TGI [42]
33.9 µM: TGI [48]
32.3 µM: TGI [13]
34.3 µM: TGI [2] | TGI [12]
